This is an account of results in US10023593B2, “ALK kinase inhibitor, and preparation method and uses thereof” (BEIJING PEARL BIOTECHNOLOGY LIMITED LIABILITY COMPANY, priority 2014, dated 2018).

SMILES strings stand for the structures.

The target in experiment [1] is cytochrome P450 2C9 (Homo sapiens, UniProt P11712). The experiment is described as follows: Inhibitory activity on cytochrome P450 2C9. It is filed as in vitro ADME. The following applies: no significant inhibition.
The target of experiment [2] is cytochrome P450 2C19 (Homo sapiens, UniProt P33261). The experiment in a line: Inhibitory activity on cytochrome P450 2C19. In kind it is in vitro ADME. The following applies: no significant inhibition.
cytochrome P450 2C19, sequence (P33261 whole entry): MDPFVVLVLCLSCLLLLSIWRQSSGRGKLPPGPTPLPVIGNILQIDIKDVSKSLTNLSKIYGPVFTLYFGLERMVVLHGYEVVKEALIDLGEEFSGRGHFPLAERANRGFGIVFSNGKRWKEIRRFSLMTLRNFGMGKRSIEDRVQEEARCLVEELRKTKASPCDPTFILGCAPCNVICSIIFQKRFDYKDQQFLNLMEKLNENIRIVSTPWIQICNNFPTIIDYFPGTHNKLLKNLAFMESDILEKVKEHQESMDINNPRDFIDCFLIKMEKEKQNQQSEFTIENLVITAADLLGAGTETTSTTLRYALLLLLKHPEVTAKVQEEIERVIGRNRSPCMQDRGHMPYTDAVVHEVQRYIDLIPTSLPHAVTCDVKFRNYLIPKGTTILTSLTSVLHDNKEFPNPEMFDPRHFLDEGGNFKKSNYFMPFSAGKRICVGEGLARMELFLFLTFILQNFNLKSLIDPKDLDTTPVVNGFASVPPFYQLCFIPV
In experiment [3] the target is T1, L1196M mutant ALK kinase (Homo sapiens, UniProt Q9UM73, L1196M).
T1 construct: purchased Sino-US Crown Bioscience, Inc. batch number ALKm_20110923
T1 sequence (Q9UM73 19-1620 L1196M): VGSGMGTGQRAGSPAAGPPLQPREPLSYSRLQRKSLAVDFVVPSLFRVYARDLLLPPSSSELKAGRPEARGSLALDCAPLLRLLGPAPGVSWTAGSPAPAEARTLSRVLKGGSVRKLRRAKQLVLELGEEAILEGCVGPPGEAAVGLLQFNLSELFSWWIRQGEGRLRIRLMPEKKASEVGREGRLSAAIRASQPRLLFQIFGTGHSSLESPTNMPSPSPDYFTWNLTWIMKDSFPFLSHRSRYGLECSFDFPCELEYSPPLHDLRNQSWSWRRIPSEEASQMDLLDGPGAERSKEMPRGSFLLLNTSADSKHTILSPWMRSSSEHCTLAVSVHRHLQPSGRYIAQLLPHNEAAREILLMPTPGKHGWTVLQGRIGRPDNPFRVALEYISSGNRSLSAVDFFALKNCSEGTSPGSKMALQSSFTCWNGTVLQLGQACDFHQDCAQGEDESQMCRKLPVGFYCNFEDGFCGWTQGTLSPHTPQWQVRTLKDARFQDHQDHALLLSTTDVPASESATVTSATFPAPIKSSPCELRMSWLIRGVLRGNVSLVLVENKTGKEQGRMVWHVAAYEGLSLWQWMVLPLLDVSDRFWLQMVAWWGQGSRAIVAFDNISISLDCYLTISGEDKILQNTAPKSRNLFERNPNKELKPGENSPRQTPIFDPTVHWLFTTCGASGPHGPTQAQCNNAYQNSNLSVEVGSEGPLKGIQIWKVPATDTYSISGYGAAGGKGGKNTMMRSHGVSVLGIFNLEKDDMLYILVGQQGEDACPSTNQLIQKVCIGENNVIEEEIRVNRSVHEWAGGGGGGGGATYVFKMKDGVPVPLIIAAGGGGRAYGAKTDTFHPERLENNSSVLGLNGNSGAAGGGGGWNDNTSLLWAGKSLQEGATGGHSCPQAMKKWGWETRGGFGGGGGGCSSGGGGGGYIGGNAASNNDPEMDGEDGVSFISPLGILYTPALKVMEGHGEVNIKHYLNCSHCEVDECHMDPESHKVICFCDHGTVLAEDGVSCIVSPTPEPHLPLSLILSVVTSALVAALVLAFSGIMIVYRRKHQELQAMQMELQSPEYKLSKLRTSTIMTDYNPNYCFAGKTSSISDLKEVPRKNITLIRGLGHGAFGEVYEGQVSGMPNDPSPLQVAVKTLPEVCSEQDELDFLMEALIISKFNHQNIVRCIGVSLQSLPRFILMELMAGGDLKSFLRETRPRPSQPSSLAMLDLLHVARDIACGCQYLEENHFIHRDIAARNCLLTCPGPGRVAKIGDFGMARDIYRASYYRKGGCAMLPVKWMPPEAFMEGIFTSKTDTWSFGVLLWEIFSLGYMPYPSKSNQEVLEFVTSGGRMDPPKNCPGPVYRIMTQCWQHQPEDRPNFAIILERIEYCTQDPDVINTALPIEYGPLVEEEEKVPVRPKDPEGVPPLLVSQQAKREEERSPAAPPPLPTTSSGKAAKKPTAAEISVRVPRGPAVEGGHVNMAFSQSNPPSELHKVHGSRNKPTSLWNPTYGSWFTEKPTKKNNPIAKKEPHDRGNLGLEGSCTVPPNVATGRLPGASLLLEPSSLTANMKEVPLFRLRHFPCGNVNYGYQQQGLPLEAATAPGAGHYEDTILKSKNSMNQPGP
The experiment in a line: HTRF KinEASE-TK assay, inhibitory activity on L1196M mutant ALK kinase. In kind it is biochemical. The following applies: L1196M mutant ALK 1 ng/μl, substrate 1 μM, ATP 5 μM, 30° C. 35 minutes, read-out: Inhibition on ALK kinases (L1196M mutant), IC50. Summed up:
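HTRF TK assay: mutant kinase 1 ng/μl, substrate 1 μM, ATP 5 μM, 5 mM MgCl2, 1 mM DTT, 1% DMSO, 35 min at 30 °C. 665/615 ratio read; inhibition normalised to no-compound and 10.4 μM LDK-378 controls; IC50 from curve fit.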
(In general: Time-resolved FRET reads energy transfer from a long-lived donor to a nearby acceptor.)

The target in experiment [4] is T2, cytochrome P450 1A2 (Homo sapiens, UniProt P05177).
T2 sequence (P05177 1-516): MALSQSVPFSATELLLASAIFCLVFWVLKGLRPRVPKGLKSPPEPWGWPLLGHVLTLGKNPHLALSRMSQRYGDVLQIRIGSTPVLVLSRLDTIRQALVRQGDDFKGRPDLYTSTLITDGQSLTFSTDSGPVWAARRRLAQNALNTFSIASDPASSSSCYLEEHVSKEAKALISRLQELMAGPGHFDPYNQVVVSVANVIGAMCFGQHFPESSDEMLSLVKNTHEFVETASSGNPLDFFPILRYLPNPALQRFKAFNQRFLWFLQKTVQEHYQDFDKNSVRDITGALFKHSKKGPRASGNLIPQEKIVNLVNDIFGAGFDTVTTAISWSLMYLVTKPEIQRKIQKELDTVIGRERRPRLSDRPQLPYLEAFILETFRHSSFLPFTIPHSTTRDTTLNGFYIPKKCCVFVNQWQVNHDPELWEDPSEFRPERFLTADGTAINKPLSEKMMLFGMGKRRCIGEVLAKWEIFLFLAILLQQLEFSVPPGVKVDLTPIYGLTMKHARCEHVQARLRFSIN
The experiment is described as follows: Inhibitory activity on cytochrome P450 1A2. It is filed as in vitro ADME. The following applies: no significant inhibition.

The test system of experiment [5] is NCI-H2228 cell line. The experiment in a line: CellTiter-Glo cell proliferation inhibition on NCI-H2228 cell line. In kind it is cell-based. The following applies: Homo sapiens, NCI-H2228, 96 h, NCI-H2228 cells, 5000 cells/well, 4 days drug treatment. Summed up:
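NCI-H2228 cells, 5000/well in RPMI-1640 + 10% FBS, treated with compounds 2 h after seeding (0.5% DMSO final) for 4 days at 37° C. Viability by CellTiter-Glo luminescence; inhibition relative to DMSO control, IC50 from curve fit.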
A general note: ATP-based viability assays read luminescence as a measure of living cells.

cytochrome P450 2C9, sequence (P11712 whole entry): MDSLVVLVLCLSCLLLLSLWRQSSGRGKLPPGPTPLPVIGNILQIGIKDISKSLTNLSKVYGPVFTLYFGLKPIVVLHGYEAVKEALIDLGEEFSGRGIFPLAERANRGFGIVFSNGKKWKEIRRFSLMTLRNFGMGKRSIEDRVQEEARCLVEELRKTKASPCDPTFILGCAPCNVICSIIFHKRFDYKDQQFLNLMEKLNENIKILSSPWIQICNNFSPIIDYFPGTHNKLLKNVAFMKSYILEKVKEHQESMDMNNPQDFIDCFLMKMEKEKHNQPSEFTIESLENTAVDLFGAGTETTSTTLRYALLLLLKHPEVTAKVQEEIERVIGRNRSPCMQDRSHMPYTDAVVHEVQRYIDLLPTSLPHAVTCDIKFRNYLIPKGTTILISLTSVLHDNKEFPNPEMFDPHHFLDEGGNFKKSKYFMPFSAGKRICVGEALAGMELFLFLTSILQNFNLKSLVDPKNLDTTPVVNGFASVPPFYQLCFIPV

What is called IC50 is the concentration at which inhibition is half-maximal. Regarding `Cc1cc(Nc2ncc(Cl)c(Nc3cn(C)nc3S(=O)(=O)C(C)C)n2)c(OC2CC2)cc1C1CCN(C(=O)C(F)(F)F)CC1` [Final product 161, 1-trifluoroacetyl-4-(4-(5-chloro-4-(3-(isopropylsulfonyl)-1-methyl-1H-pyrazol-4-amino)pyrimidin-2-amine)-5-cyclopropoxy-2-methylphenyl)piperidine], the concentration for half-maximal inhibition (IC50) in experiment [1] is over 10000 nM; in experiment [2], over 10000 nM; in experiment [3] it was 43 nM; in experiment [4] it was over 10000 nM; in experiment [5] it was 47 nM.

On to `Cc1cc(Nc2ncc(Cl)c(Nc3cn(C)nc3S(=O)(=O)C(C)C)n2)c(OC2CC2)cc1C1CCN(C(=O)CC#N)CC1` [Final product 166, 1-cyano acetyl-4-(4-(5-chloro-4-(3-(isopropylsulfonyl)-1-methyl-1H-pyrazol-4-amino)pyrimidin-2-amine)-5-cyclopropoxy-2-methylphenyl)piperidine], for which the IC50 in experiment [1] is over 10000 nM; in experiment [2] it was over 10000 nM; in experiment [3], 6 nM; in experiment [4], over 10000 nM; in experiment [5], 42 nM.

In the case of `Cc1cc(Nc2ncc(Cl)c(Nc3cn(C)nc3S(=O)(=O)C(C)C)n2)c(OC2CC2)cc1C1CCN(S(C)(=O)=O)CC1` [Final product 167, 5-chloro-N^2-(2-cyclopropoxy-5-methyl-4-(1-methanesulfonyl-piperidin-4-yl)-phenyl)-N^4-(3-(isopropylsulfonyl)-1-methyl-1H-pyrazol-4-yl)pyrimidin-2,4-diamine], the IC50 in experiment [1] was over 10000 nM; in experiment [2], over 10000 nM; in experiment [3], 11 nM; in experiment [4] it was over 10000 nM; in experiment [5] it was 59 nM.

Regarding `CC(=O)N1CCN([C@H]2CC[C@H](c3cc(OC4CC4)c(Nc4ncc(Cl)c(Nc5cn(C)nc5S(=O)(=O)C(C)C)n4)cc3C)CC2)CC1` [Final product 204], the IC50 in experiment [1] was over 10000 nM; in experiment [2] it was over 10000 nM; in experiment [3], 18 nM; in experiment [4] it was over 10000 nM; in experiment [5] it was 76 nM.
